From patent US10344002B2, “Compositions and methods for treating metabolic disorders” (NuSirt Sciences, Inc., priority 2016, dated 2019)

Tests used:
C2C12 muscle cells [1] = details: same system, metformin alone; cited from earlier work
C2C12 muscle cells [2] = test: Fatty acid oxidation (oxygen consumption rate, Seahorse XF-24) in C2C12 muscle cells; assay type: cell-based; details: same system
Experimental: Cell Culture: C2C12 muscle cells were seeded with 40,000 cells per well on Seahorse tissue culture plates in Dulbecco's modified eagle's medium (DMEM) containing 10% fetal bovine serum (FBS) and antibiotics (1% penicillin-streptomycin) at 37° C. in 5% CO2. After reaching confluency (24 hours), cells were induced to differentiate with DMEM containing 2% Horse Serum for 3 to 4 days until myotubes were fully formed. Cells were then treated with indicated concentration of Compound 2 for 24 hours.
(§1) Compound 2 was dissolved in 100% DMSO to a stock concentration of 100 mM. This stock was further diluted to indicated concentrations in DMEM media.
Fatty acid oxidation: Baseline and palmitate-stimulated oxygen consumption rates were measured with XF-24 analyzer (Seahorse Bioscience (now part of Agilent Technologies), MA, USA). After 24 hour treatment with Compound 2 of differentiated C2C12 muscle cells, cells were washed twice with non-buffered carbonate-free pH 7.4 low glucose (2.5 mM) DMEM containing carnitine (0.5 mM), equilibrated with 600 μl of the same media in a non-CO2 incubator for 45 minutes, and then inserted into the instrument for 15 minutes of further equilibration, followed by O2 consumption measurement. Three successive baseline measures at five-minute intervals were taken prior to injection of palmitate (200 μM final concentration). Sets of three five-minute intervals followed by 10-minute time delay were continued over a 2 to 3 hour period after palmitate injection. The area under the curve of 02 consumption change from baseline for each sample was then calculated and used for subsequent analysis. Data are represented as mean±SD for each treatment group.

HepG2 liver cells [3] = test: Lipid accumulation (Oil Red Staining) in HepG2 liver cells induced with high glucose plus insulin; assay type: cell-based; details: same system
Experimental: Cell Culture: HepG2 liver cells were seeded with 80,000 cells per well on 24-well tissue culture plates in low glucose (5 mM) DMEM containing 10% FBS and antibiotics. After 24 hours of attachment, lipid accumulation was induced by incubating cells with high glucose (25 mM) DMEM (10% FBS, 1% Pen-Strep) plus 100 nM insulin for 48 hours. Cells were then treated with indicated concentrations of Compound 2 for an additional 48 hours.
as §1
Lipid accumulation (Oil Red Staining): HepG2 liver cells were seeded and treated as described above. After 48 hours of treatment with Compound 2, lipid accumulation in HepG2 was measured via Oil Red Staining. Cells were washed with phosphate buffered saline (PBS) once, then cells were fixated with 10% formalin for 1 hour. After removal of the formalin, cells were washed with ddH2O twice, then washed with 60% isopropanol. Cells were dried completely. Cells were stained with Oil Red working solution (˜5 mM) for 25 minutes, then immediately washed with ddH2O four times, then dried completely again. Oil Red dye was eluted with 100% isopropanol and absorbance was read at 500 nm. Unstained cells plus isopropanol was used as a blank and subtracted from all readings. Data are represented as mean±SEM for each treatment group.

HepG2 liver cells [4] = details: same system, metformin alone; cited from earlier work

CN(C)C(=N)NC(=N)N [metformin, Metformin, reference compound]
concentration below which fat oxidation is not stimulated (C2C12 muscle cells [1]): ≥ 1 mM | fold higher concentration (in comparison with Compound 2) for fat oxidation (C2C12 muscle cells [2]): 100,000 fold | fold higher concentration (in comparison with Compound 2) for reducing hepatic lipids (HepG2 liver cells [3]): 100,000 fold | concentration below which hepatic lipids are not reduced (HepG2 liver cells [4]): ≥ 1 mM
